# Where a name gives a salt, the structure may show the parent alone.
# Tested on: Proteinkinase C (PKC)
# Experiment: Inhibition of PS/DO-mediated protein kinase C activity (32P incorporation into histone H-1)
# Type: biochemical, Hühner
# From the text: Zur Klärung des hemmenden Einflusses der erfindungsgemäßen Verbindungen der allgemeinen Formel I auf die Calcium- und Phospholipid-abhängige Proteinkinase (PKC) wurde diese Enzymaktivität ausgehend von einem Hühnermagenextrakt angereichert. In Anlehnung an in der Literatur beschriebene Reinigungsschritte (J. Biol. Chem. 260, S. 15718-15722, 1985) wurde bei der aus 2 Schritten bestehenden Reinigung die Eigenschaft des Enzyms ausgenutzt, in Anwesenheit von Calcium an Zellmembranen zu binden und durch Calciumchelatoren (EGTA) wieder abgelöst zu werden. Beim 1. Anreicherungsschritt erfolgte die Bindung der PKC an Membranen des Hühnermagenextraktes und im 2. Schritt an sogenannte Inside/Out-Vesikel von Erythrozyten. Nach Ablösung von den Erythrozyten-Membranen und Umpufferung lag die PKC-Präparation in 10 mM HEPES, 1 mM DTT, 0,1% PEG 20000, pH 7,5 vor und konnte unter diesen Bedingungen bei -70°C für mehrere Monate ohne Aktivitätsverlust gelagert werden.
# Die Aktivität des Enzyms wurde über den Einbau von Phosphor-32-markiertem Phosphat in das durch PKC phosphorylierbare Protein Histon H-1 bestimmt. Der Test enthält dabei folgende Kumponenten: 50 mM HEPES (pH 7,5), 1 mM DTT, 5 mM MgCl₂, ca. 10 µM freies Ca²⁺, 200 µg/ml Histon, 5 µg/ml Phosphatidylserin, 1 µg/ml 1,2-Diolein, 10 µM ATP, eine jeweils geeignete Menge der PKC-Präparation und gegebenenfalls eine Testsubstanz. Die unter Standardbedingungen gemessene Kinase-Aktivität in Anwesenheit von PKC-Aktivatoren (und ohne Testsubstanz) wurde jeweils als 100% gesetzt und die Hemmwirkung der Verbindungen der allgemeinen Formel I prozentual darauf bezogen.
# In Tabelle I ist die Inhibierung von PS/DO [PS: Phosphatidylserin, DO: 1,2-Diolein] vermittelter Proteinkinase C-Aktivität angegeben.
SMILES,"Inhibierung der PS/ DO-vermittelten PKC-Aktivität (%) (konz. 1x10^-5 mol/l, 10 µM)",Inhibierung der PS/ DO-vermittelten PKC-Aktivität (%) (konz. 1x10^-6 mol/l),"Inhibierung der PS/ DO-vermittelten PKC-Aktivität (%) (konz. 1x10^-4 mol/l, 100 µM)"
"CCCCCCCCCCCCCCCCCCOCC(N)CO (racemic) [Beispiel 6, (±)-2-Amino-3-octadecyloxy-1-propanol, reference compound]",69,11,–
"CCCCCCCCCCCCCCOCC(COC(C)=O)N(C)C (racemic) [Beispiel 1b, (±)-2-Dimethylamino-3-tetradecyloxy-1-propylacetat Oxalat]",36,–,–
"CCCCCCCCCCCCCCCCCCSCC(N)CO (racemic) [Beispiel 5, (±)-2-Amino-3-octadecylthio-1-propanol]",39,12,–
"CCCCCCCCCCCCCCCCCCOCC(CO)NCC (racemic) [Beispiel 2, (±)-2-Ethylamino-octadecyloxy-1-propanol · Hydrochlorid]",91,23,99
"CCCCCCCCCCCCCCCCOCC(COC(C)=O)N(C)C (racemic) [Beispiel 1a, (±)-2-Dimethylamino-3-hexadecyloxy-1-propylacetat Oxalat]",23,–,–
"CCCCCCCCCCCCCCCCCCOCC(COC(=O)c1ccccc1)[N+](C)(C)C (racemic) [Beispiel 4, (±)-1-Benzoyloxy-3-octadecyloxy-2-propyl-trimethylammoniumjodid]",90,21,104
"CCCCCCCCCCCCCCCCCCOCC(CO)N(CC)CC.O=C(O)C(=O)O (racemic) [Beispiel 2a, (±)-2-Diethylamino-3-octadecyloxy-1-propanol Oxalat]",78,11,100
"CCCCCCCCCCCCCCCCCCOCC(COC(C)=O)N(C)C (racemic) [Beispiel 1, (±)-2-Dimethylamino-3-octadecyloxy-1-propylacetat · Hydrochlorid]",28,–,–
